Results on 5 compounds are retold here after patent US20230017948A1, “COMBINATION THERAPY USING FABP5 INHIBITORS WITH TAXANES FOR TREATMENT OF CANCER” (The Research Foundation for The State University of New York, priority 2019, published 2023).

SMILES strings stand for the structures.

The test system of one series is PCa cell. The note with it: in vitro and in vivo (Al-Jameel, W. et al. 2017); cited from earlier work.
The subject of the next series is PC3 cells. Description: MTT cytotoxicity assay, single drugs and combinations, PC3 cells. The class given is cell-based. The note with it: Homo sapiens, PC-3, 72-hour incubation. (In general: Tetrazolium assays rely on reduction of a dye to a coloured formazan, in cell work by metabolically active cells.)
The test system of the next series is DU-145 cells. The series can be described thus: MTT cytotoxicity assay, single drugs and combinations, DU-145 cells. The class given is cell-based. To be noted: Homo sapiens; DU-145, MTT, 72-hour incubation.
A short description of series [1]: MTT cytotoxicity assay, RWPE-1 cells (normal prostate cell-line). The class given is cell-based. The note with it: human, RWPE-1, MTT, 72-hour incubation.
The nature of series [2]: MTT cytotoxicity assay, WI-38 cells (normal lung cell-line). The series is classed as cell-based. The note with it: human, WI-38, MTT, 72-hour incubation.
The subject of series [3] is PC3 cells implanted subcutaneously. The series can be described thus: Subcutaneous PC3 tumor growth in male BALB/c nude mice. The series is classed as in vivo. The note with it: ip. As to the method:
Male BALB/c nude mice (BALB/cOlaHsd-Foxnlnu, 20-30 g, 7-8 weeks old) (Envigo RMS Inc, Indianapolis, Ind.) were used for all experiments. Animals were housed individually at room temperature and were kept on a 12:12-hour light:dark cycle with access to food and water ad libitum. Euthanasia was carried out utilizing CO2 asphyxiation. All of the experiments were approved by the Stony Brook University Animal Care and Use Committee.
Male BALB/c nude mice were subcutaneously inoculated with PC3 cells. Briefly, cells (1×10^6 per mouse) were resuspended in 100 μL of a 1:1 mixture of phosphate-buffered saline (PBS):Matrigel (Corning Inc, Corning, N.Y.) and implanted into a single dorsal lateral flank using a 21G needle. Tumor length (L) and tumor width (W) were measured twice weekly using digital calipers, and tumor volume (V) was calculated as (V═[L×W2]/2). When tumor volume reached approximately 150 to 200 mm3, animals were grouped and drug administration commenced. Humane endpoints for all animals were as follows: animals carrying a tumor burden greater than 35 days, body weight (which was recorded twice weekly) decreasing by greater than 15%, tumor ulceration, paralysis, failure to groom, bleeding, respiratory distress, and/or tumor volume reaching 1500 mm3.
SBFI-102, SBFI-103, and docetaxel were each reconstituted in a 1:1:8 vehicle consisting of dimethyl sulfoxide (DMSO) (Thermo Fisher Scientific, Hampton, N.H.):Cremaphor-EL (Sigma-Aldrich):saline. SBFI-102 and SBFI-103 were administered via intraperitoneal injection (ip) using a 27G needle at 20 mg/kg daily. Docetaxel was administered i.p. at 5 or 10 mg/kg weekly. All drugs were administered in a volume of 10 μL/g body weight.
All data were obtained from at least three independent experiments and then values described in each figure legend depict each independent trial or animal. Data for all in vivo experiments were analyzed using a one-way analysis of variance with the Tukey post hoc test (GraphPad Prism, version 8.0.2). Data are represented as means±SEM and P<0.05 was considered statistically significant. […]

The subject of another series is 22Rv1 cells. Description: cells. The note with it: Homo sapiens, 22Rv1, 72 h, read-out: cytotoxicity IC50.
Setting [4] is: 20 mg/kg, once daily, from day 15.

Regarding `O=C(O)C1[C@H](c2ccccc2)C(C(=O)Oc2cccc3ccccc23)[C@H]1c1ccccc1` (some centres unmarked) [SBFI-26], in the series on PCa cell, the “effect on PCa cell growth, migration, invasion, tumor formation and metastasis” value is “suppresses PCa cell growth, migration, invasion, tumor formation, and metastasis”.
The term IC50 denotes the point on the concentration scale where inhibition reaches its midpoint. Turning to `COc1ccccc1C1[C@H](C(=O)O)[C@H](c2ccccc2OC)[C@H]1C(=O)Oc1cccc2ccccc12` (some centres unmarked) [SBFI-102], the IC50 in the series with PC3 cells came out at 11.4 µM; in the series with DU-145 cells it was 8.9 µM; in the series with 22Rv1 cells, 10.1 µM. The figures for the IC50 at 72 h in series [1] and in series [2] were 26 µM and 29.4 µM, respectively. Also, the tumor growth entry in series [3] (setting [4]) is given as “significantly reduced tumor growth”.
On to `COc1ccccc1C1[C@H](C(=O)O)[C@H](c2ccccc2OC)[C@H]1C(=O)OCC1c2ccccc2-c2ccccc21` (some centres unmarked) [SBFI-103], for which the IC50 with PC3 cells worked out at 6.3 µM; in the series on DU-145 cells it was 3.3 µM; with 22Rv1 cells, 3.1 µM. Besides, the IC50 at 72 h came out at 20.6 µM in series [1] and 29.6 µM in series [2]. For the same compound, the tumor growth result in series [3] (setting [4]) is recorded as “significantly reduced tumor growth”.
`CO[C@H]1C(=O)[C@]2(C)[C@@H](OC)C[C@H]3OC[C@@]3(OC(C)=O)[C@H]2[C@H](OC(=O)c2ccccc2)[C@]2(O)C[C@H](OC(=O)[C@H](O)[C@@H](NC(=O)OC(C)(C)C)c3ccccc3)C(C)=C1C2(C)C` [cabazitaxel, reference compound]: the results for the IC50 in the series on PC3 cells, in the series on DU-145 cells and in the series on 22Rv1 cells were 0.0016 µM, 0.0002 µM and 0.0003 µM, respectively.
In the case of `CC(=O)O[C@@]12CO[C@@H]1C[C@H](O)[C@@]1(C)C(=O)[C@H](O)C3=C(C)[C@@H](OC(=O)[C@H](O)[C@@H](NC(=O)OC(C)(C)C)c4ccccc4)C[C@@](O)([C@@H](OC(=O)c4ccccc4)[C@H]21)C3(C)C` [docetaxel, reference compound], the IC50 in the series with PC3 cells stood at 0.0019 µM; with DU-145 cells, 0.0008 µM; in the series on 22Rv1 cells it was 0.0003 µM. In addition, the tumor growth entry in series [3] (docetaxel 10 mg/kg, once weekly) is reported as “near complete inhibition of growth”.
